{
  "source": "patent US20250136934A1",
  "about": "“PRODUCTION OF INDUCED MIDBRAIN DOPAMINERGIC PROGENITOR CELLS FROM PLURIPOTENT STEM CELLS” (NUWACELL BIOTECHNOLOGIES CO., LTD., priority 2023, published 2025)",
  "test_system": "EN1 and LMX1A",
  "test": "qRT-PCR analysis of ventral midbrain markers EN1 and LMX1A in imDAP cells",
  "type": "cell-based, human",
  "details": "3-step protocol",
  "protocol": "(1) qRT-PCR • 1. For qRT-PCR analysis of mRNA gene expression, RNA should be harvested from at least 2×10^6 cells. • 2. Harvest cells, add 350 μl of buffer RLT+1% (vol/vol) β-mercaptoethanol to the well, transfer the lysate to a 1.5 ml tube, and put it immediately on ice. • 3. Perform RNA extraction using the Tiangen Kit (DP430) and following the manufacturer's protocol ‘Purification of total RNA from animal and human cells’. • 4. When the RNA extraction was completed, determine the RNA concentration using a Nanodrop instrument. • 5. Perform the first-strand cDNA synthesis reaction with 1 μg of RNA using the HiScript™ II Q RT SuperMIX for qPCR (+gDNA wiper) Kit (Vazyme, #R223-01) for RT-qPCR. Follow the manufacturer's ‘First-Strand cDNA Synthesis’ protocol. This reaction would yield a 20 μl product. • 6. Dilute 10 μl cDNA product in 80 μl of nuclease-free water. • 7. Pipette the diluted cDNA product (1 μl), Sybr green master mix (5 μl, Transgen, #AQ131) and 0.95 μM reverse/forward primer mix (4 μl) into a 384-well PCR plate in triplicate, either manually or using an automated pipetting robot. The complete primer panel included the target genes and the housekeeping gene (RPL13A). In the analysis, the expression level of gene was determined by using a sample of undifferentiated hPSCs as control. • 8. Analyze the samples by running a quantitative PCR on the LightCycler 480 instrument using a 40x cycle two-step protocol with a 60° C., 60 sec annealing/elongation step and a 95° C., 30 sec denaturation step. The average CT value from the three technical replicates was used for calculation of relative gene expression using the ΔΔCT method. […]\nOn Day-1, EB formation (Stage 1) was carried out by dissociating hiPSCs (Nuwacell) to form a single-cell suspension and resuspending it in Epic medium (Nuwacell, #RP01001) containing 10 μM Blebbistatin (MCE, #HY-13441) in T25 flasks on a belly dancer and culturing the cells overnight. […] On Day 16 (at the end of S2-2), imDAP cells were collected and analyzed by qRT-PCR assay for ventral midbrain marker EN1 and LMX1A. […]",
  "data": [
    {"smiles": "Cc1cnc(-c2cnc(NCCNc3ccc(C#N)cn3)nc2-c2ccc(Cl)cc2Cl)[nH]1", "note": "[CHIR, CHIR99021]", "values": [
      {"measurement": "expression levels of EN1 and LMX1A", "setting": "CHIR 5 μM and 7.5 μM compared to 10 μM", "value": "better results"},
      {"measurement": "expression levels of EN1 and LMX1A", "setting": "CHIR 7.5 μM Stage 2-2 from Day 3 to Day 6 versus Day 3 to Day 10", "value": "comparable"},
      {"measurement": "expression levels of EN1 and LMX1A", "setting": "high CHIR 5, 7.5 or 10 μM Day 3 to Day 10, relative to the 2-step protocol", "value": "increased"}
    ]}
  ]
}
